{"source": "patent US20240299376A1", "about": "“METHOD OF TREATING A CONDITION USING A […] EFFECTIVE DOSE OF 1-(1-OXO-1,2-DIHYDROISOQUINOLIN-5-YL)-5-(TRIFLUOROMETHYL)-N-(2-(TRIFLUOROMETHYL)PYRIDIN-4-YL)-1H-PYRAZOLE-4-CARBOXAMIDE” (Janssen Pharmaceutica NV, priority 2021, published 2024)", "key": {"B-cell lymphoma lines": {"system": "B-cell lymphoma lines", "test": "Anti-proliferative activity, panel of 10 B-cell lymphoma lines (general cytotoxicity)", "type": "cell-based", "method": "Four ABC-DLBCL cell lines with activating mutations in the canonical NFκB pathway were evaluated (OCI-LY3 (CARD11, MYD88 & A20 mutations), TMD8, HBL1, and OCI-LY10 (CD79B & MYD88 mutations)), which are generally sensitive to NF-κB pathway inhibition. None of the GCB-DLBCL cell lines harbor mutations in the NF-κB pathway. The GCB-DLBCL cell lines served as a negative control to exclude compounds with general cytotoxic effects.\nAt concentrations ≥20 μM general cytotoxicity was observed."}, "[1]": {"test": "Pharmacokinetic modeling and simulations to predict the human dose", "details": "corresponds to mouse trough at 10 mg/kg BID after accounting for protein binding difference mice/human", "method": "According to the tested scenario, the minimum predicted efficacious dose is approximately 110 mg given once daily.\nThe pharmacokinetic modeling was used based on available non-clinical pharmacokinetic data and allometric scaling. In addition, modeling using GastroPlus and SimCYP was also used to guide PK parameter prediction."}, "U2932 (A20/TAK1 mut)": {"system": "U2932 (A20/TAK1 mut)", "test": "Anti-proliferative activity, DLBCL cell line panel", "type": "cell-based", "details": "Homo sapiens, U2932, 192 h; antiproliferation after 8 days of treatment"}, "[2]": {"test": "Serum concentration after 28 days of oral dosing in male OCI-LY3 tumor-bearing NSG mice", "type": "in vivo", "details": "mouse, mean; for concentration at 1 h: 1 h post last dose; for concentration at 2 h: 2 h post last dose; for concentration at 4 h: 4 h post last dose; for concentration at 8 h: 8 h post last dose; for concentration at 12 h: 12 h post last dose; for concentration at 0.25 h: 0.25 h post last dose", "method": "For study 3, animals were randomly assigned into treatment groups, when the OCI-LY3 mean tumor volume was 164 mm^3 (Day 32 post-tumor cell implantation). Treatment was initiated on the day of randomization (Day 32). After 28 days of treatment on Day 60, serum was collected at 2, 4, and 12 hours post last dose for the bid treated groups or 2, 4 and 24 hours post last dose for qd treated groups in cohorts of 5 mice. Blood was collected from the retro-orbital sinus and submitted for bioanalytical analysis.\nSerum samples were collected at 1, 2, 4, 8, and 12 hours post dose (for twice-daily-treated animals) or 24 hours (for once-daily-treated animals)."}, "[3]": {"system": "HLY-1 (Myd88/CARD11/homoz A20 mut)", "test": "Anti-proliferative activity, DLBCL cell line panel", "type": "cell-based", "details": "192 h; antiproliferation after 8 days of treatment"}, "MALT1 substrate BCL10": {"system": "MALT1 substrate BCL10", "test": "BCL10 Mesoscale assay of OCI-LY3 tumor samples after a single dose", "type": "in vivo, NSG mice", "details": "OCI-LY3 tumors", "method": "MALT1 protease activity results in the cleavage of negative regulators of the classical NF-κB pathway such as A20, CYLD, RelB, and BCL10. […] The assay measures un-cleaved BCL10 which is increased upon MALT1 inhibition. OCI-LY3 or OCI-LY10 tumors were crushed before lysis in Mammalian Protein Extraction Reagent buffer for 30 minutes at 4° C. Centrifugation of the lysate was done and supernatant kept for analysis in the MSD assay. MSD plates (small spot, goat anti-rabbit coated, MSD L45RA-1) were blocked for 1 hour with 3% Bovine serum Albumin (in Tris-buffered saline, 0.1% Tween 20) and labeled with BCL10 antibody (Abcam #33905) to capture the uncleaved BCL10. 25 μg of tumor lysates were transferred to the BCL 10-labeled MSD plate and incubated for 24 hours at 4° C. followed by 2-hour incubation with BCL10 antibody detecting cleaved/uncleaved BCL10 (ab93022) and 2-hour antibody detection. Plates were read on a SECTOR imager.\nAs a more direct PD readout, OCI-LY3 tumor samples were analyzed by a BCL 10 Mesoscale assay, looking for cleavage inhibition of the MALT1 substrate BCL10. The assay measures uncleaved BCL10 in tumor.\nTumor uncleaved BCL10 levels are graphed as the mean+SD.\nFor PD, when tumors reached 550-750 mm^3 animals were assigned randomly into the treatment groups and treated as presented in Table 5. Dose volumes were adjusted to individual body weights at 10 mL/kg. […]"}, "Single IV dose plasma PK": {"test": "Single IV dose plasma PK", "type": "in vivo, mouse", "method": "Single intravenous (IV) dose PK was conducted in mice (two strains), rats, monkeys, and dogs at a dose of 1 mg/kg in 70% PEG400 (PEG400/water 70:30) by bolus injection. The time course for plasma sample was optimized to fully characterize the disposition profile in each species. PK analysis was by non-compartmental method."}, "[4]": {"details": "male, plasma, Mouse, CD-1, 3M, 1 mg/kg IV in 70% PEG400, mean"}, "[5]": {"details": "male, plasma, Mouse, NSG, 3M, 1 mg/kg IV in 70% PEG400, mean"}}, "note": "Where two headings read alike, the source gives them in different places.", "data": [{"smiles": "O=C(Nc1ccnc(C(F)(F)F)c1)c1cnn(-c2cccc3c(=O)[nH]ccc23)c1C(F)(F)F", "note": "[Compound A, 1-(1-oxo-1,2-dihydroisoquinolin-5-yl)-5-(trifluoromethyl)-N-[2-(trifluoromethyl)pyridin-4-yl]-1H-pyrazole-4-carboxamide]", "values": [{"measurement": "concentrations at which general cytotoxicity was observed", "setting": "B-cell lymphoma lines", "result": "≥ 20", "unit": "µM"}, {"measurement": "Ctrough at steady state targeted in humans", "setting": "[1]", "result": 4640, "unit": "ng/mL"}, {"measurement": "IC50", "setting": "U2932 (A20/TAK1 mut)", "result": 3.9, "unit": "µM"}, {"measurement": "concentration at 1 h", "setting": "[2]; 1 mg/kg BID PO 28 days", "result": 550, "unit": "ng/mL"}, {"measurement": "concentration at 2 h", "setting": "[2]; 1 mg/kg BID PO 28 days", "result": 449, "unit": "ng/mL"}, {"measurement": "concentration at 4 h", "setting": "[2]; 1 mg/kg BID PO 28 days", "result": 526, "unit": "ng/mL"}, {"measurement": "concentration at 8 h", "setting": "[2]; 1 mg/kg BID PO 28 days", "result": 721, "unit": "ng/mL"}, {"measurement": "concentration at 12 h", "setting": "[2]; 1 mg/kg BID PO 28 days", "result": 307, "unit": "ng/mL"}, {"measurement": "concentration at 0.25 h", "setting": "[2]; 3 mg/kg BID PO 28 days", "result": 1020, "unit": "ng/mL"}, {"measurement": "concentration at 1 h", "setting": "[2]; 3 mg/kg BID PO 28 days, N = 2", "result": 1940, "unit": "ng/mL"}, {"measurement": "concentration at 2 h", "setting": "[2]; 3 mg/kg BID PO 28 days", "result": 1560, "unit": "ng/mL"}, {"measurement": "concentration at 4 h", "setting": "[2]; 3 mg/kg BID PO 28 days", "result": 1150, "unit": "ng/mL"}, {"measurement": "concentration at 8 h", "setting": "[2]; 3 mg/kg BID PO 28 days, N = 2", "result": 2680, "unit": "ng/mL"}, {"measurement": "concentration at 12 h", "setting": "[2]; 3 mg/kg BID PO 28 days", "result": 1020, "unit": "ng/mL"}, {"measurement": "concentration at 0.25 h", "setting": "[2]; 10 mg/kg BID PO 28 days", "result": 4050, "unit": "ng/mL"}, {"measurement": "concentration at 1 h", "setting": "[2]; 10 mg/kg BID PO 28 days", "result": 5080, "unit": "ng/mL"}, {"measurement": "concentration at 2 h", "setting": "[2]; 10 mg/kg BID PO 28 days", "result": 4600, "unit": "ng/mL"}, {"measurement": "concentration at 4 h", "setting": "[2]; 10 mg/kg BID PO 28 days", "result": 6250, "unit": "ng/mL"}, {"measurement": "concentration at 8 h", "setting": "[2]; 10 mg/kg BID PO 28 days", "result": 5500, "unit": "ng/mL"}, {"measurement": "concentration at 12 h", "setting": "[2]; 10 mg/kg BID PO 28 days", "result": 4170, "unit": "ng/mL"}, {"measurement": "concentration at 0.25 h", "setting": "[2]; 30 mg/kg BID PO 28 days", "result": 5970, "unit": "ng/mL"}, {"measurement": "concentration at 1 h", "setting": "[2]; 30 mg/kg BID PO 28 days", "result": 11400, "unit": "ng/mL"}, {"measurement": "concentration at 2 h", "setting": "[2]; 30 mg/kg BID PO 28 days", "result": 12300, "unit": "ng/mL"}, {"measurement": "concentration at 4 h", "setting": "[2]; 30 mg/kg BID PO 28 days", "result": 10400, "unit": "ng/mL"}, {"measurement": "concentration at 8 h", "setting": "[2]; 30 mg/kg BID PO 28 days", "result": 14700, "unit": "ng/mL"}, {"measurement": "concentration at 12 h", "setting": "[2]; 30 mg/kg BID PO 28 days", "result": 9000, "unit": "ng/mL"}, {"measurement": "concentration at 1 h", "setting": "[2]; 60 mg/kg QD PO 28 days", "result": 9270, "unit": "ng/mL"}, {"measurement": "concentration at 2 h", "setting": "[2]; 60 mg/kg QD PO 28 days", "result": 16000, "unit": "ng/mL"}, {"measurement": "concentration at 4 h", "setting": "[2]; 60 mg/kg QD PO 28 days", "result": 11400, "unit": "ng/mL"}, {"measurement": "concentration at 24 h", "setting": "[2]; 60 mg/kg QD PO 28 days, 24 h post last dose", "result": 2510, "unit": "ng/mL"}, {"measurement": "concentration at 0.25 h", "setting": "[2]; 100 mg/kg BID PO 28 days", "result": 16500, "unit": "ng/mL"}, {"measurement": "concentration at 1 h", "setting": "[2]; 100 mg/kg BID PO 28 days", "result": 21200, "unit": "ng/mL"}, {"measurement": "concentration at 2 h", "setting": "[2]; 100 mg/kg BID PO 28 days", "result": 21600, "unit": "ng/mL"}, {"measurement": "concentration at 4 h", "setting": "[2]; 100 mg/kg BID PO 28 days", "result": 12800, "unit": "ng/mL"}, {"measurement": "concentration at 8 h", "setting": "[2]; 100 mg/kg BID PO 28 days", "result": 20500, "unit": "ng/mL"}, {"measurement": "concentration at 12 h", "setting": "[2]; 100 mg/kg BID PO 28 days", "result": 10300, "unit": "ng/mL"}, {"measurement": "IC50", "setting": "[3]", "result": 8.8, "unit": "µM"}, {"measurement": "dose giving maximum levels of uncleaved BCL10", "setting": "MALT1 substrate BCL10", "result": "≥ 10", "unit": "mg/kg"}, {"measurement": "fraction of uncleaved BCL10 in tumor", "setting": "MALT1 substrate BCL10", "result": "dose-dependently increased the fraction of uncleaved BCL10"}, {"measurement": "Vd", "setting": "Single IV dose plasma PK; CD-1 and NSG (mouse), Sprague-Dawley (rat), beagle (dog), plasma, similar across all species (mouse, rat, monkey, dog), IV 1 mg/kg, read-out: apparent volume of distribution at steady state", "result": "~1", "unit": "L/kg"}, {"measurement": "AUC(0-inf)", "setting": "Single IV dose plasma PK; [4]", "result": 12200, "unit": "ng·h/mL"}, {"measurement": "C0", "setting": "Single IV dose plasma PK; [4]", "result": 940, "unit": "ng/mL"}, {"measurement": "clearance", "setting": "Single IV dose plasma PK; [4]", "result": 1.3, "unit": "mL/min/kg"}, {"measurement": "Vd", "setting": "Single IV dose plasma PK; male, plasma, Mouse, CD-1, 3M, 1 mg/kg IV in 70% PEG400, mean, read-out: Vdss", "result": 1.4, "unit": "L/kg"}, {"measurement": "AUC(0-inf)", "setting": "Single IV dose plasma PK; [5]", "result": 5490, "unit": "ng·h/mL"}, {"measurement": "C0", "setting": "Single IV dose plasma PK; [5]", "result": 1130, "unit": "ng/mL"}, {"measurement": "clearance", "setting": "Single IV dose plasma PK; [5]", "result": 3.04, "unit": "mL/min/kg"}, {"measurement": "half-life", "setting": "Single IV dose plasma PK; [5]", "result": 5.28, "unit": "h"}, {"measurement": "Vd", "setting": "Single IV dose plasma PK; male, plasma, Mouse, NSG, 3M, 1 mg/kg IV in 70% PEG400, mean, read-out: Vdss", "result": 1.23, "unit": "L/kg"}, {"measurement": "CL as fraction of liver blood flow (LBF)", "setting": "Single IV dose plasma PK; mouse, LBF 90 mL/min/kg", "result": 1.4, "unit": "%"}]}]}
